The values below are quoted from earlier work in US20200397720A1, “METHOD AND FORMULATION FOR TREATMENT OF WOUNDS BY NEW TISSUE REGENERATION WITH REDUCED TRAUMA AND SCAR TISSUE FORMATION” (priority 2019, published 2020).

The series concerns inflammatory cytokines, including IL-6 and TNF-α. To be noted: high fat diet-induced atherosclerosis in rabbits.

With `CC1=C(/C=C/C(C)=C/C=C/C(C)=C/C(=O)O)C(C)(C)CCC1` [ATRA, all-trans retinoic acid], the “effect on inflammatory cytokines, including IL-6 and TNF-α” value is “lowering inflammatory cytokines”.
